Results taken from BindingDB's records for doi:10.1021/jm990336n (Boehringer Ingelheim Pharmaceuticals, 2000).

Target: T1, Dimer of Gag-Pol polyprotein [489-587] (Human immunodeficiency virus 1, UniProt P12497)
T1 construct: 489-587
Assay: Protease Inhibition Assay
Conditions: pH 5.5; 37 °C
Procedure: Sensitivity of HIV-1 protease activity to protease inhibitors was determined by a peptide substrate cleavage assay. Cleavage products and substrate were separated by reversed-phase HPLC on a Perkin-Elmer 3 X 3CR C8 column.

CC(C)[C@H](NC(=O)c1ccc2ccccc2n1)C(=O)N[C@@H](Cc1ccccc1)[C@H](O)CN1CC[C@@H](OCc2ccncc2)C[C@H]1C(=O)NC(C)(C)C
IC50: 4 nM

CC(C)(C)NC(=O)[C@@H]1C[C@H](OCc2ccncc2)CCN1C[C@@H](O)[C@H](Cc1ccccc1)NC(=O)CCCc1ccccc1 [(2S,4R)-N-tert-butyl-1-[(2R,3S)-2-hydroxy-4-phenyl-3-(4-phenylbutanamido)butyl]-4-(pyridin-4-ylmethoxy)piperidine-2-carboxamide]
IC50: > 20000 nM

CC(C)(C)NC(=O)[C@@H]1C[C@H](OCc2ccncc2)CCN1C[C@@H](O)[C@H](Cc1ccccc1)NC(=O)O[C@H]1CCOC1 [(3S)-oxolan-3-yl N-[(2S,3R)-4-[(2S,4R)-2-(tert-butylcarbamoyl)-4-(pyridin-4-ylmethoxy)piperidin-1-yl]-3-hydroxy-1-phenylbutan-2-yl]carbamate]
IC50: 260 nM

CC(C)CN(C[C@@H](O)[C@H](Cc1ccccc1)NC(=O)O[C@H]1CCOC1)S(=O)(=O)c1ccc(N)cc1 [VX-478]
IC50: 2.6 nM
